From patent US6355608B1, “Detergent composition” (Shiseido Co., Ltd., priority 1998, dated 2002)

How the values were obtained:
[1] = Foaming test with the shaking method; assay type: physicochemical
Experimental: (§1) 0.5 wt % of each sample in Table 1 was dissolved in ion exchanged water with 70 ppm calcium chloride already dissolved in it. […] This solution was kept at 30° C. put into a Nessler's tube with an inner diameter of 3 cm and a height of 20 cm equipped with a sliding plug, and then tilted 90 degrees every second using a pendulum type shaker. After one minute, the sample was taken out of the shaker and the foam height, the foam film thickness and the foam density were measured. The time required for the foam height to be reduced to a half of the original height was also measured. The foam film thickness was measured by taking a photograph of the foam using a microscope at 100 times magnification and calculating the average value on the photograph. The foam density was obtained by sampling 10 ml of the foam and measuring its weight.
as §1, with “Table 6” for “Table 1”, “30° C.,” for “30° C.”
as §1, with “Table 11” for “Table 1”, “30° C.,” for “30° C.”
as §1, with “sample” for “sample in Table 1”, “C.,” for “C.”, “weight. […]” for “weight.”

[2] = Lathering/foaming test: foam volume in a mixer with artificial dirt; assay type: physicochemical; conditions: mixtures of N-methyl taurate laurate and sodium laurate, total 100 mmol/L; 400 ml with 2g artificial dirt, stirred 60 seconds

| Compound | Foaming (in words) ([1]; pH 4) | Foaming (in words) ([1]; pH 7) | other results |
| --- | --- | --- | --- |
| Sodium hydroxylauryl ether carboxylate [Control sample 1] | harder to foam | – | – |
| Potassium hydroxylauryl ether carboxylate [Control sample 2] | harder to foam | – | – |
| Potassium hydroxylaurate [Control sample 2] | – | harder to foam | – |
| CNCCS(=O)(=O)O [N-methyl taurine] | – | – | Lathering/foaming ability (foam volume, FIG. 6) [2]: good lathering/foaming ability |
| Sodium hydroxylaurate [Control sample 1] | – | harder to foam | – |
| Magnesium laurate [Control sample 3] | – | harder to foam | – |
